Source: US5342771A, “Functionalized imidazolinone haptens and protein conjugates thereof useful in assays for the detection of imidazolinone herbicides” (American Cyanamid Company, priority 1993, dated 1994)

Biological target: antibody
Experiment: Cross-reactivity of the antibody by ELISA (competitive binding with enzyme conjugate)
Parameters: species or system New Zealand white rabbits
Details: concentration giving 50% reduction of absorbance caused by enzyme conjugate binding to a known amount of antibody
Description: The antigen produced in example 2 is dissolved into 0.1M sodium phosphate buffer solution containing 0.14% sodium chloride at pH 7.6 (PBS 7.6). One milliliter of the antigen solution, 0.5 mg antigen per milliliter, is mixed with one milliliter of Freund's complete adjuvant and emulsified. The emulsion is injected peri-lymph nodal into New Zealand white rabbits at 0.5 mg/rabbit. Three weeks after the initial immunization, 0.25 mg of the antigen in 1 mL of PBS 7.6 is emulsified with 1 mL of Freund's incomplete adjuvant and injected into the rabbits intramuscularly as boosters. The booster injections are introduced every three weeks into the rabbits. After the second boost, blood samples are collected through the ear vein ten days post injection. Serum containing the antibody is harvested from the blood samples and stored.
The antibody and enzyme conjugate prepared above are used to establish an ELISA method for the determination of the presence and concentration of imidazolinones in soil, water or plant samples. A Costar 96 well polystyrene EIA treated flat bottom microwell plate is coated with a constant amount of the antibody in a 0.1N Na2 CO3 buffer. The antibody coated wells are incubated overnight at 4° C., washed with PBS 7.6 buffer containing 0.01% TWEEN® 20, blocked with 5% milk (nonfat dry milk) in PBS 7.6 and incubated 30 minutes at room temperature. Standard solutions having concentrations of imazaquin from 0 to 25 ng per mL are added to the blocked wells followed by the addition of the aforementioned enzyme conjugate.
The wells are incubated for thirty minutes, washed and then a freshly prepared tetramethylbenzidine/hydrogen peroxide substrate solution is added to each well. After ten minutes, readings are taken for each well at 650 nm using a microwell reader.
The cross reactivity of the antibody with imidazolinone compounds, imidazolinone metabolites and other commonly found agrochemicals is determined using the procedure of example 5. The concentration of a compound which produces a 50% reduction of absorbance caused by the enzyme conjugate binding to a known amount of antibody is defined as the I50 value (50% inhibition concentration). The I50 values from the cross-reactivity studies are in Table III.

Row | Compound | I50 (50% inhibition concentration)
1 | CC(C)C(C)(C(N)=O)N1C(=O)c2cc3ccccc3nc2C1=O (stereo not drawn) [1,3-Dihydro-α-isopropyl-α-methyl-1,3-dioxo-2 --H-pyrrolo[3,4- -b]quinoline-2-acetamide] | > 5,000 ng/mL
2 | CC(C)C(C)(NC(=O)c1nc2ccccc2cc1C(=O)O)C(N)=O (centres unmarked) [2-[(1-Carbamoyl-1,2-dimethylpropyl)carbamoyl]-3-quinolinecarboxylic acid] | > 5,000 ng/mL
3 | CC(C)C(C)(NC(=O)c1cc2ccccc2nc1C(=O)O)C(N)=O (centres unmarked) [3-[(1-Carbamoyl-1,2-dimethylpropyl)carbamoyl]quinaldic acid] | > 5,000 ng/mL
4 | CCc1cccc(CC)c1N(COC)C(=O)CCl [Alachlor] | > 100,000 ng/mL
5 | CCNc1nc(Cl)nc(NC(C)C)n1 [Atrazine] | > 100,000 ng/mL
6 | CCCCOCN(C(=O)CCl)c1c(CC)cccc1CC [Butachlor] | > 100,000 ng/mL
7 | COc1nc(C)nc(NC(=O)NS(=O)(=O)c2ccccc2Cl)n1 [Chlorsulfuron] | > 100,000 ng/mL
8 | CC(C)C1(C)N=C(c2ncccc2C(=O)O)NC1=O (centres unmarked) [Imazapyr, 2-(4-isopropyl-4-methyl-5-oxo-2-imidazolin-2-yl)nicotinic acid] | 149.0 ng/mL
9 | CC(C)C1(C)N=C(c2nc3ccccc3cc2C(=O)O)NC1=O (centres unmarked) [Imazaquin, 2-(4-isopropyl-4-methyl-5-oxo-2-imidazolin-2-yl)-3-quinolinecarboxylic acid] | 10.7 ng/mL
10 | CCc1cnc(C2=NC(C)(C(C)C)C(=O)N2)c(C(=O)O)c1 (centres unmarked) [Imazethapyr, 5-ethyl-2-(4-isopropyl-4-methyl-5-oxo-2-imidazolin-2-yl)nicotinic acid] | 18.5 ng/mL
11 | COC(=O)c1nc2ccccc2cc1C(=O)NC(C)(C(N)=O)C(C)C (centres unmarked) [Methyl 3-[(1-carbamoyl-1,2-dimethylpropyl)carbamoyl]-2-quinolinecarboxylate] | > 5,000 ng/mL
12 | C[n+]1ccc(-c2cc[n+](C)cc2)cc1 [Paraquat] | > 100,000 ng/mL
13 | CCC(CC)Nc1c([N+](=O)[O-])cc(C)c(C)c1[N+](=O)[O-] [Pendimethalin] | > 100,000 ng/mL
14 | mixture of methyl 6-(4-isopropyl-4-methyl-5-oxo-2-imidazolin-2-yl)-m-toluate and methyl 2-(4-isopropyl-4-methyl-5-oxo-2-imidazolin-2-yl)-p-toluate [Imazamethabenz] | 33.2 ng/mL
